Test results published in US12578273B2, “Ph-reversible leuco-BODIPY probe for in situ visualization of extracellular vesicles and their secretion from living cells” (The Chinese University of Hong Kong, priority 2021, dated 2026).

Key:
[1] = pH-dependent spectroscopic properties (pH titration, absorption and fluorescence); type: physicochemical; settings: weakly basic conditions (pH of about 7.4); PBS containing 50% ethanol
Description: In each step of pH titration, small volumes (2-10 μL) of HCl at appropriate concentrations (0.1, 10^−2, or 10^−3 M) were pipetted directly into the measurement cell, followed by filling up with 2 mL of 1 μM dye-containing solution [either in a mixture of PBS/ethanol 1:1 (v/v) or 0.5% (v/v) DMSO]. The pH was monitored at 298 K using a digital pH meter (827 pH lab) equipped with a Biotrode (Metrohm, Herisau, Switzerland). Calibration of the instrument was performed with standard aqueous solutions of pH 4, 7, and 9 from Metrohm. Absorption and fluorescence measurements were carried out on an Agilent Cary 5000 spectrophotometer and a Horiba Jobin Yvon spectrometer (Nanolog FL3-2iHR), respectively.
We investigated the spectroscopic properties of the fluorescent probe as a function of pH in phosphate-buffered saline (PBS) containing 50% ethanol by UV-vis spectrophotometry and fluorimetry (FIGS. 21A-21F, 22-23).

[2] = test system: A549 cells; test: Cytotoxicity of the probe (alamarBlue cell viability); type: cell-based; settings: 2 μM, 0.1% DMSO, 12 h
Description: (§1) FIGS. 28A-28C Cytotoxicity of the probe. Pre-seeded in 96-well plates, HEK293, HeLa, and A549 cells were incubated in complete DMEM containing different concentrations of leuco-BODIPY [dissolved in dimethyl sulfoxide (DMSO)] for 12 h. The alamarBlue reagent (Invitrogen) was used to test cell viability by measuring the optical absorbance at 570 nm and 600 nm by a Multiskan GO UV-absorbance microplate reader. Reported data represent mean±SD from three independent experiments.
(§2) We studied the mechanism for the cellular uptake of our probe by a pharmacological approach.

[3] = test system: HEK293 cells; test: as above; type: cell-based; settings: 2 μM, 0.1% DMSO, 12 h
Description: as §1, §2

[4] = test system: HeLa cells; test: as above; type: cell-based; settings: 2 μM, 0.1% DMSO, 12 h
Description: as §1, §2

[5] = test system: A549 cells; test: Pathway for the cellular entry of the probe (NaN3 or 4 °C block of energy-dependent endocytosis); type: cell-based; settings: 5 μM probe, 30 min
Description: (§3) FIGS. 29A-29F Pathway for the cellular uptake of the probe. The cells were either (FIGS. 29A-29C) treated with sodium azide (NaN3) or (FIGS. 29D-29F) incubated at 4° C. for blocking energy-dependent endocytosis (red bars). Cells under normal cell culture conditions (37° C. without NaN3) serve as the positive control (green bars). Statistical analysis was conducted by two-tailed Student's t test. Not significant (ns) P>0.05. Error bar indicates standard deviation.
(§4) Cells were firstly cultured in a 96-well plate and allowed to reach about 90% confluence. In our first experiment, the cells were either pretreated in 0.1 mL of complete DMEM containing 5 mM NaN3 (Sigma) at 37° C. for 3 h. After that, the medium was replaced by 0.1 mL of complete medium containing 5 mM NaN3 and 5 μM leuco-BODIPY (in 0.5% DMSO) at 37° C. for another 30 min. In our second experiment, the cells were preincubated with 0.1 mL of complete DMEM inside a 4° C. refrigerator for 30 min. After that, the medium was replaced by 0.1 mL of complete medium containing 5 μM leuco-BODIPY (in 0.5% DMSO) for another 30 min and incubated at 4° C. As the […], cells were incubated with 0.1 mL of complete medium containing 5 μM leuco-BODIPY (in 0.5% DMSO) at 37° C. for 30 min. At the end of both experiments, the fluorescence of the treated cells was measured by a microplate reader (ThermoFisher Fluoroskan Ascent, Waltham, MA) at an excitation wavelength of 584 nm and emission wavelength of 612 nm.
as §2

[6] = test system: HEK293 cells; test: as above; type: cell-based; settings: 5 μM probe, 30 min
Description: as §3, §4, §2

[7] = test system: HeLa cells; test: as above; type: cell-based; settings: 5 μM probe, 30 min
Description: as §3, §4, §2

[8] = test system: HeLa cells; test: Effect of probe staining on the secretion of EVs (nanoparticle tracking analysis); type: cell-based; settings: 5 μM leuco-BODIPY, 3 h, NTA
Description: FIGS. 32A-32B Effect of probe staining on the secretion of EVs. HeLa cells were incubated with (FIG. 32A) complete DMEM or (FIG. 32B) DMEM containing 5 μM leuco-BODIPY for 3 h. After that, the EV sample was isolated from the cells for nanoparticle tracking analysis (NTA).
EV samples were diluted with filtered PBS (0.2 μm) to obtain an EV concentration of 10^8-10^9 particles/mL. For each sample, four 1-min videos were recorded when introduced about 1 mL of the conditioned medium to the NTA system (Malvern NanoSight NS500, Malvern, UK). The temperature was kept at about 18° C. Images in each video were analyzed with NTA 3.1 Build 3.1.45 software (Malvern). Auto settings were used for blur size and maximum jump distance. 2000 frames were examined per sample. […]
Moreover, we incubated the three cell types with our probe for 30 min, isolated the EVs secreted to the culture medium, centrifuged the collected medium to remove any dye-stained cell fragments, and confirmed the detection of fluorescence in the isolated EVs (Table 1). By contrast, for the EVs isolated from the same cell types under the same culture conditions but without treatment by our probe, the fluorescence detected was at the background level of blank culture medium.

[9] = pretreatment with sodium azide (5 mM)

SMILES: CCOC(=O)C(=Cc1ccc2n1[B-](F)(F)n1c(C=C(C(=O)OCC)C(=O)OCC)ccc1C2(OC)c1ccncc1)C(=O)OCC [leuco-BODIPY]
- new absorption band [1]: ~360 nm
- cell viability [2]: did not severely reduce cell viability
- cell viability [3]: did not severely reduce cell viability
- cell viability [4]: did not severely reduce cell viability
- cellular uptake of the probe ([5]; preincubation at 4 °C): did not significantly affect
- cellular uptake of the probe [5, 9]: did not significantly affect
- cellular uptake of the probe ([6]; preincubation at 4 °C): did not significantly affect
- cellular uptake of the probe [6, 9]: did not significantly affect
- cellular uptake of the probe ([7]; preincubation at 4 °C): did not significantly affect
- cellular uptake of the probe [7, 9]: did not significantly affect
- effect on EV secretion (size distribution of EVs from dye-stained vs unstained cells) [8]: limited effect
